Read-outs that look alike come from different tables or passages of the source.
Target: T1, Syk (Homo sapiens, UniProt P43405)
T1 construct: purchased Carna Biosciences
Assay: Syk HTRF assay
Type: biochemical
Experimental: Test compounds were prepared at a concentration of 1.5 mM in DMSO followed by 3-fold dilutions in Greiner […] polypropylene plates. A 1:4 dilution of compounds by 8 μL/well transfer from the polypropylene plates to 24 μL/well Assay Buffer in Costar 3710 384 well black plates was then performed. Kinases (13 μL/well) or Assay Buffer only (background controls; 50 mM HEPES pH 7.6, 1 mM DTT, 10 mM MgCl2, 0.01% Triton X100, 0.01% BSA and 0.1 mM EDTA) were added to Costar 3710 384-well black plates for the HTRF assays (Carna Biosciences) and compound was added from the 1:4 dilution plate. Syk start mix (87.5 μM ATP, 80 nM Substrate Peptide (American Peptide Company 332722) was added and the mixture was incubated at room temperature for 1 hour. Syk Stop Solution (120 mM EDTA in dilution buffer) was then added to the Syk HTRF assay plate and incubated at room temperature on a shaker for 2 minutes. Syk Antibody Mix (4.86 μg/mL DyLight 647 Streptavidin (Pierce 21824); 1 μg/mL Lance Eu-Anti-Phosphotyrosine (PerkinElmer AD0069)) was added to the Syk HTRF assay plate and the mixture was further incubated at room temperature for >4 h. Time resolved fluorescence was read in assay plates on a PerkinElmer EnVision. HTRF assays were performed using 320 nm excitation, 60 μs delay, 665 nm and 615 nm emission. Data was expressed by division of 665 nm by 615 nm emissions.

[1] = activity levels A-D, read-out: Activity Level (IC50 in the Syk HTRF assay)
[2] = read-out: Activity Level (Syk HTRF assay IC50)
[3] = IC50 activity level, read-out: Activity Level

Row | IC50 [1] | IC50 [3] | Compound | also measured
1 | 1000 to 10000 nM | – | O[C@H]1CC[C@@H](Nc2cccc3nc(Nc4ccccc4F)nn23)CC1 [Example 357, cis-4-(2-(2-fluorophenylamino)-[1,2,4]triazolo[1,5-a]pyridin-5-ylamino)cyclohexanol] | –
2 | 0.005 to 250 nM | – | Cc1n[nH]c2cc(Nc3nc4cccc(CN5CCNC(=O)C5)n4n3)ccc12 [Example 235, 4-((2-(3-methyl-1H-indazol-6-ylamino)-[1,2,4]triazolo[1,5-a]pyridin-5-yl)methyl)piperazin-2-one] | –
3 | 0.005 to 250 nM | – | Cc1cc(Nc2nc3cccc(N[C@H]4CC[C@@H](O)CC4)n3n2)cc(C)c1F [Example 279, cis-4-(2-(4-fluoro-3,5-dimethylphenylamino)-[1,2,4]triazolo[1,5-a]pyridin-5-ylamino)cyclohexanol] | –
4 | – | – | CC1(O)CN(c2cccc3nc(Nc4ccc5c(c4)NC(=O)C5(C)C)nn23)C1 [Example 171, 6-(5-(3-hydroxy-3-methylazetidin-1-yl)-[1,2,4]triazolo[1,5-a]pyridin-2-ylamino)-3,3-dimethylindolin-2-one] | IC50 [2]: 0.005 to 250 nM
5 | 1000 to 10000 nM | – | OCCCOc1cccc2nc(Nc3ccc(C(F)(F)F)cc3)nn12 [Example 304, 3-(2-(4-(trifluoromethyl)phenylamino)-[1,2,4]triazolo[1,5-a]pyridin-5-yloxy)propan-1-ol] | –
6 | – | 1000 to 10000 nM | Fc1ccc(Nc2nc3cccc(NC4CCCNC4)n3n2)cc1 (stereo in doubt) [Example 462, (R)-N^2-(4-fluorophenyl)-N^5-(piperidin-3-yl)-[1,2,4]triazolo[1,5-a]pyridin-2,5-diamine] | –
7 | 0.005 to 250 nM | – | O=c1cc(Cc2cccc3nc(Nc4ccc(C(F)(F)F)cc4)nn23)cc[nH]1 [Example 317, 4-((2-(4-(trifluoromethyl)phenylamino)-[1,2,4]triazolo[1,5-a]pyridin-5-yl)methyl)pyridin-2(1H)-one] | –
8 | 500 to 1000 nM | – | O[C@@H]1CCC[C@H]1Nc1cc(-c2cccc3nc(Nc4ccc(C(F)(F)F)cc4)nn23)ccn1 [Example 246, (1R,2R)-2-(4-(2-(4-(trifluoromethyl)phenylamino)-[1,2,4]triazolo[1,5-a]pyridin-5-yl)pyridin-2-ylamino)cyclopentanol] | –
9 | – | 0.005 to 250 nM | c1ccc(Nc2nc3cccc(-c4ccc5nc[nH]c5c4)n3n2)cc1 [Example 514, 5-(1H-benzo[d]imidazol-6-yl)-N-phenyl-[1,2,4]triazolo[1,5-a]pyridin-2-amine] | –
10 | – | 1000 to 10000 nM | c1ccc(Nc2nc3cccc(C4CCCCC4)n3n2)cc1 [Example 525, 5-cyclohexyl-N-phenyl-[1,2,4]triazolo[1,5-a]pyridin-2-amine] | –
11 | – | – | c1ccc(-c2cccc3nc(Nc4ccc(N5CCOCC5)nc4)nn23)cc1 [compound 41, N-(6-morpholinopyridin-3-yl)-5-phenyl-[1,2,4]triazolo[1,5-a]pyridin-2-amine] | IC50 [2]: 0.005 to 250 nM
12 | – | 1000 to 10000 nM | OC1(Cc2cccc3nc(Nc4ccc(F)cc4)nn23)CCNCC1 [Example 430, 4-((2-(4-fluorophenylamino)-[1,2,4]triazolo[1,5-a]pyridin-5-yl)methyl)piperidin-4-ol] | –
13 | – | 0.005 to 250 nM | c1ccc(Nc2nc3cccc(-c4ccc5nc(CN6CCCC6)[nH]c5c4)n3n2)cc1 [Example 428, N-phenyl-5-(2-(pyrrolidin-1-ylmethyl)-1H-benzo[d]imidazol-6-yl)-[1,2,4]triazolo[1,5-a]pyridin-2-amine] | –
14 | – | 1000 to 10000 nM | NCCn1cnc2ccc(-c3cccc4nc(Nc5ccccc5)nn34)cc21 [Example 515, 5-(1-(2-aminoethyl)-1H-benzo[d]imidazol-6-yl)-N-phenyl-[1,2,4]triazolo[1,5-a]pyridin-2-amine] | –
15 | 500 to 1000 nM | – | N#Cc1cc(Nc2nc3cccc(N[C@H]4CC[C@@H](O)CC4)n3n2)ccn1 [Example 256, cis-4-(5-(4-hydroxycyclohexylamino)-[1,2,4]triazolo[1,5-a]pyridin-2-ylamino)picolinonitrile] | –
16 | 0.005 to 250 nM | – | Cc1n[nH]c2cc(Nc3nc4cccc(NC5CCOCC5)n4n3)ccc12 [Example 209, N^2-(3-methyl-1H-indazol-6-yl)-N^5-(tetrahydro-2H-pyran-4-yl)-[1,2,4]triazolo[1,5-a]pyridin-2,5-diamine] | –
17 | – | – | Cc1n[nH]c2ccc(Nc3nc4cccc(CC5CCOCC5)n4n3)cc12 [compound 116, N-(3-methyl-1H-indazol-5-yl)-5-((tetrahydro-2H-pyran-4-yl)methyl)-[1,2,4]triazolo[1,5-a]pyridin-2-amine] | IC50 [2]: 0.005 to 250 nM
18 | – | 1000 to 10000 nM | NC(=O)c1ccc(Nc2nc3cccc(NC4CCNCC4)n3n2)cc1 [Example 516, 4-(5-(piperidin-4-ylamino)-[1,2,4]triazolo[1,5-a]pyridin-2-ylamino)benzamide] | –

Row | IC50 [1] | IC50 [3] | Compound | also measured
19 | – | 0.005 to 250 nM | FC(F)(F)c1ccc(Nc2nc3cccc(N[C@H]4CCCNC4)n3n2)cc1 [Example 469, (S)-N^5-(piperidin-3-yl)-N^2-(4-(trifluoromethyl)phenyl)-[1,2,4]triazolo[1,5-a]pyridin-2,5-diamine] | –
20 | 250 to 500 nM | – | OC1CCN(c2cccc3nc(Nc4ccc(C(F)(F)F)cc4)nn23)C1 (stereo in doubt) [Example 333, (S)-1-(2-(4-(trifluoromethyl)phenylamino)-[1,2,4]triazolo[1,5-a]pyridin-5-yl)pyrrolidin-3-ol] | –
21 | – | 0.005 to 250 nM | FC(F)(F)c1n[nH]c2cc(Nc3nc4cccc(CC5CCOCC5)n4n3)ccc12 [Example 540, 5-((tetrahydro-2H-pyran-4-yl)methyl)-N-(3-(trifluoromethyl)-1H-indazol-6-yl)-[1,2,4]triazolo[1,5-a]pyridin-2-amine] | –
22 | – | 1000 to 10000 nM | c1cc(NC2CCOCC2)n2nc(Nc3ccc(-c4nc[nH]n4)cc3)nc2c1 [Example 565, N^2-(4-(1H-1,2,4-triazol-3-yl)phenyl)-N^5-(tetrahydro-2H-pyran-4-yl)-[1,2,4]triazolo[1,5-a]pyridine-2,5-diamine] | –
23 | 0.005 to 250 nM | – | OCCOc1cc(Nc2nc3cccc(N[C@H]4CC[C@@H](O)CC4)n3n2)ccn1 [Example 277, cis-4-(2-(2-(2-hydroxyethoxy)pyridin-4-ylamino)-[1,2,4]triazolo[1,5-a]pyridin-5-ylamino)cyclohexanol] | –
24 | – | 500 to 1000 nM | CC(C)Nc1cccc2nc(Nc3ccccc3)nn12 [Example 530, N^5-isopropyl-N^2-phenyl-[1,2,4]triazolo[1,5-a]pyrridine-2,5-diamine] | –
25 | – | – | O=C1CN(Cc2cccc3nc(Nc4ccc5c(C(F)(F)F)n[nH]c5c4)nn23)CCN1 [Example 155, 4-((2-(3-(trifluoromethyl)-1H-indazol-6-ylamino)-[1,2,4]triazolo[1,5-a]pyridin-5-yl)methyl)piperazin-2-one] | IC50 [2]: 0.005 to 250 nM
26 | – | 250 to 500 nM | Fc1ccc(Nc2nc3cccc(NC4CCCCNC4)n3n2)cc1 (stereo not drawn) [Example 427, N^5-(azepan-3-yl)-N^2-(4-fluorophenyl)-[1,2,4]triazolo[1,5-a]pyridine-2,5-diamine] | –
27 | 1000 to 10000 nM | – | CNC(=O)c1ccc(Nc2nc3cccc(CC(O)C4CCNCC4)n3n2)cc1 (stereo not drawn) [Example 306, 4-(5-(2-hydroxy-2-(piperidin-4-yl)ethyl)-[1,2,4]triazolo[1,5-a]pyridin-2-ylamino)-N-methylbenzamide] | –
28 | – | 250 to 500 nM | NC(=O)c1cccc(Cc2cccc3nc(Nc4ccccc4)nn23)c1 [Example 442, 3-((2-(phenylamino)-[1,2,4]triazolo[1,5-a]pyridin-5-yl)methyl)benzamide] | –
29 | 0.005 to 250 nM | – | CC(c1cc[nH]c(=O)c1)c1cccc2nc(Nc3ccc(C(F)(F)F)cc3)nn12 (stereo not drawn) [Example 211, 4-(1-(2-(4-(trifluoromethyl)phenylamino)-[1,2,4]triazolo[1,5-a]pyridin-5-yl)ethyl)pyridin-2(1H)-one] | –
30 | – | – | NC(=O)c1ccc(Nc2nc3cccc(-c4ccccc4)n3n2)cc1F [compound 73, 2-fluoro-4-(5-phenyl-[1,2,4]triazolo[1,5-a]pyridin-2-ylamino)benzamide] | IC50 [2]: 1000 to 10000 nM
31 | – | – | Cc1cc(Nc2nc3cccc(N[C@H]4CC[C@@H](O)CC4)n3n2)cnc1N1CCOCC1 [compound 105, cis-4-(2-(5-methyl-6-morpholinopyridin-3-ylamino)-[1,2,4]triazolo[1,5-a]pyridin-5-ylamino)cyclohexanol] | IC50 [2]: 0.005 to 250 nM
32 | 0.005 to 250 nM | – | Cc1cc(Nc2nc3cccc(N[C@H]4CC[C@@H](O)CC4)n3n2)ccc1F [Example 320, cis-4-(2-(4-fluoro-3-methylphenylamino)-[1,2,4]triazolo[1,5-a]pyridin-5-ylamino)cyclohexanol] | –
33 | 500 to 1000 nM | – | Cc1cc(Nc2nc3cccc(N[C@H]4CC[C@@H](O)CC4)n3n2)cc(C)n1 [Example 261, cis-4-(2-(2,6-dimethylpyridin-4-ylamino)-[1,2,4]triazolo[1,5-a]pyridin-5-ylamino)cyclohexanol] | –
34 | – | – | Oc1ccc2cc(Nc3nc4cccc(-c5ccccc5)n4n3)ccc2n1 [compound 26, 6-(5-phenyl-[1,2,4]triazolo[1,5-a]pyridin-2-ylamino)quinolin-2-ol] | IC50 [2]: 0.005 to 250 nM
35 | – | – | c1ccc(-c2cccc3nc(Nc4ccc5c(c4)CNC5)nn23)cc1 [compound 53] | IC50 [2]: 0.005 to 250 nM
36 | 0.005 to 250 nM | – | CC1C(=O)NCCN1Cc1cccc2nc(Nc3ccc(C(F)(F)F)cc3)nn12 (stereo not drawn) [Example 281, 3-methyl-4-((2-(4-(trifluoromethyl)phenylamino)-[1,2,4]triazolo[1,5-a]pyridin-5-yl)methyl)piperazin-2-one] | –

From patent US8299056B2 (Signal Pharmaceuticals, LLC, priority 2008, dated 2012)
